From ChEMBL document CHEMBL5226326, “Discovery of 1-Benzoyl 4-Phenoxypiperidines as Small-Molecule Inhibitors of the β-Catenin/B-Cell Lymphoma 9 Protein-Protein Interaction” (J Med Chem, 2021)
pIC50, pKd, pKi: −log10 of the molar value.

Experiments:
MDA-MB-468 = assay: Antiproliferative activity against beta-catenin signalling overexpressing human MDA-MB-468 cells assessed as reduction in cell growth incubated for 72 hrs by MTS assay; format: functional, cell-based; conditions: MDA-MB-468, 72 h
[1] = target: T1, Catenin beta-1/Cadherin-1 (Homo sapiens, UniProt P35222); assay: Inhibition of full length beta-catenin (1 to 686 residues) (unknown origin) expressed in Escherichia coli BL21 (DE3)/N-terminal biotinylated human E-cadherin (824 to 877 residues) protein-protein interaction assessed as inhibition constant incubated for 2 hr by Alphascreen assay
T1 sequence (P35222 whole entry): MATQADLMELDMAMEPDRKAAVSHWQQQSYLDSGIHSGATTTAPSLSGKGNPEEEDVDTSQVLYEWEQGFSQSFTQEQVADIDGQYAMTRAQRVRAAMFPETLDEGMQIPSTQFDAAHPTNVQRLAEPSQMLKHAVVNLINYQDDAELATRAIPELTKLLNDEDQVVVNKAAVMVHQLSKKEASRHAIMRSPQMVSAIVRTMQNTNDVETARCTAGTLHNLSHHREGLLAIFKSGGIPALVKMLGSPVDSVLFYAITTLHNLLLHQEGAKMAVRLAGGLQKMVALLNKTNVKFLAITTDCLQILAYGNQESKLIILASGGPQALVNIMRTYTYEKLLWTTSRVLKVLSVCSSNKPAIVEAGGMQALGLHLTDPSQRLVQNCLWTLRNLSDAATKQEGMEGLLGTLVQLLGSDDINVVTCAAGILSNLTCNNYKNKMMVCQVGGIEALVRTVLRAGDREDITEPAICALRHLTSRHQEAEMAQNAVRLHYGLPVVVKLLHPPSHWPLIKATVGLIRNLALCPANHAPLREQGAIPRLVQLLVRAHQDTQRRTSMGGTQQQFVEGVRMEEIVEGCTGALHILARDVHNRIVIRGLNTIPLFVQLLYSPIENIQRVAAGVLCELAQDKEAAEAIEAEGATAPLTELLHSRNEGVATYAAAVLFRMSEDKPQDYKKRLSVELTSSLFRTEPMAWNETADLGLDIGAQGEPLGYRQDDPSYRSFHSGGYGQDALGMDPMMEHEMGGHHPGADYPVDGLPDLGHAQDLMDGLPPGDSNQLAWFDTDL
T1 sequence (P12830 whole entry): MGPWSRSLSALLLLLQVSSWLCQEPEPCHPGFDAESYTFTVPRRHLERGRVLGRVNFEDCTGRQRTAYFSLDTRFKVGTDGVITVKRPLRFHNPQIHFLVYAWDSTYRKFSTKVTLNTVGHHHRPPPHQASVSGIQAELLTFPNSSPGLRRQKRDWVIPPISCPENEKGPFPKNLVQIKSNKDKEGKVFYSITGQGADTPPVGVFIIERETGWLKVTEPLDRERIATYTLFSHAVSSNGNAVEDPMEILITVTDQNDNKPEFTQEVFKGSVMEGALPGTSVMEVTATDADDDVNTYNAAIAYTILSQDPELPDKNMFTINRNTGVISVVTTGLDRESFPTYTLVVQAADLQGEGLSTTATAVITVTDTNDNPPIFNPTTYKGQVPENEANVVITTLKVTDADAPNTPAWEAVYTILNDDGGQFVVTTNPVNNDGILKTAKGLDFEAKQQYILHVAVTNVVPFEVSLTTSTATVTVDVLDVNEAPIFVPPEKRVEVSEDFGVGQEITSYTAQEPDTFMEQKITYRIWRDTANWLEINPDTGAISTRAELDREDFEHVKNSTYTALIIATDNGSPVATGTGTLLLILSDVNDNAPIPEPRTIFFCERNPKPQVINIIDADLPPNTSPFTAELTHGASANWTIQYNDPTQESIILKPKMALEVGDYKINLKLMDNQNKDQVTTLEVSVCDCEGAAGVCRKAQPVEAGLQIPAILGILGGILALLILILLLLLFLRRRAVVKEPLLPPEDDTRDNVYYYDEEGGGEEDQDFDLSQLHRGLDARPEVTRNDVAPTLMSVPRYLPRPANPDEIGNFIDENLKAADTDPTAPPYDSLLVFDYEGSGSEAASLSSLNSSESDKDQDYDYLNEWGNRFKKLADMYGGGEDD

HCT-116 = assay: Antiproliferative activity against beta-catenin signalling overexpressing human HCT-116 cells assessed as reduction in cell growth incubated for 72 hrs by MTS assay; format: functional, cell-based; conditions: HCT-116, 72 h
[2] = Inhibition of full length beta-catenin E155A mutant/N-terminal biotinylated human BCL9 HD2 (350 to 375 residues) protein-protein interaction in human SW480 cells incubated for 1 hr by Alphascreen assay; format: cell-based
[3] = Cytotoxicity against human MCF-10A cells assessed as reduction in cell growth incubated for 72 hrs by MTS assay; format: toxicity, cell-based
[4] = target: T1, Catenin beta-1/Cadherin-1; assay: Inhibition of full length beta-catenin (1 to 686 residues) (unknown origin) expressed in Escherichia coli BL21 (DE3)/N-terminal biotinylated human E-cadherin (824 to 877 residues) protein-protein interaction incubated for 2 hr by Alphascreen assay

CC(C)(C)C1CCC(c2cc(C(=O)N3CCC(Oc4cc(N5CCNCC5)ccc4C#N)CC3)ccc2O[C@H]2CCNC2)CC1.Cl.Cl (mixture of isomers; cis)
pIC50 (MDA-MB-468): 5.41
pKi [1]: 4.72
pIC50 (HCT-116): 5.01
pKi [2]: 5.44
IC50 at 72 h [3]: 18 µM
pKd [4]: 4.10
